Experimental data from publication PMC12848304, “Small-molecule inhibitor of C‑terminal HSP90 dimerization modulates autophagy and functions synergistically with mTOR inhibition to kill cisplatin-resistant cancer cells” (Cell Death & Disease, 2025).

Experiments:
HSP90β = molecular target: T1, HSP90β (Homo sapiens, UniProt P08238); test: TR-FRET HSP90 CTD/PPID interaction assay ([…]); format: biochemical
T1 construct: gene HSP90AB1; C-terminal domain (CTD); with PPID

HSP90α CTD = molecular target: T2, HSP90α CTD (Homo sapiens, UniProt P07900); test: thermal shift assay (SYPRO orange, […]) with recombinant HSP90α CTD; supported by BS3 cross-linking (loss of CTD dimers) and CETSA; format: binding; details: read-out: thermal shift assay (SYPRO orange, 100 μM) with recombinant HSP90α CTD; supporte
T2 construct: gene HSP90AA1; recombinant C-terminal domain (CTD)
T2 sequence (P07900 626-732 limits assumed): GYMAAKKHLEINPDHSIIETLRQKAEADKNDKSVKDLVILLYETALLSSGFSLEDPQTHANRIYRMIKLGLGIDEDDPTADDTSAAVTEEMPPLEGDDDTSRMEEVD

T1 sequence (P08238 553-724 limits assumed): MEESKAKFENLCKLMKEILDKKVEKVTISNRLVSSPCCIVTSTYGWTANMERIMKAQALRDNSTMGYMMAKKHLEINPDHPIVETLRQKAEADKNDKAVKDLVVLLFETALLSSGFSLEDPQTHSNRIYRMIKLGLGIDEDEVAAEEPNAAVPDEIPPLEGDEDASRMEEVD
T1 sequence (Q08752 2-370 partner): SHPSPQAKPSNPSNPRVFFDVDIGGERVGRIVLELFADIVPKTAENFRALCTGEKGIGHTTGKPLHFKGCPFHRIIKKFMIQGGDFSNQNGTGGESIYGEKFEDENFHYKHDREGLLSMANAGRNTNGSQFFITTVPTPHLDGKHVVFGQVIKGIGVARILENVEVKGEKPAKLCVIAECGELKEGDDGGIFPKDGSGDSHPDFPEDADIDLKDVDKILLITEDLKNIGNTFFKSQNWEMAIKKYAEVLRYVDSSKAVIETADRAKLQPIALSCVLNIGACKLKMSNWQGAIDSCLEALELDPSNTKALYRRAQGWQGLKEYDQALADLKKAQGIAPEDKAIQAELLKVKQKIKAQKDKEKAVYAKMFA

Compound: CCC(C)n1c(C(=O)Nc2cnc(C(=O)NC)n(CC(C)C)c2=O)ncc(NC(=O)c2ncc(N)c(=O)n2Cc2ccc(OC)cc2)c1=O (centres unmarked) [compound 2, VWK147]
- TR-FRET HSP90 CTD/PPID interaction assay (1 mM) (HSP90β): VWK147 disrupts the binding of Peptidyl prolyl isomerase D (PPID, CTD-specific co-chaperone) to the CTD of recombinant HSP90β
- ΔTm at 100 µM (HSP90α CTD): -8.43 ± 2.75 °C
